Measurements as given in article PMC10606064, “2-Aminothiazole-Flavonoid Hybrid Derivatives Binding to Tau Protein and Responsible for Antitumor Activity in Glioblastoma” (International Journal of Molecular Sciences, 2023).

What was measured:
[1] = system: U87 shTau cells; assay: Mitochondria network analysis (citrate synthase immunofluorescence), U87 shTau; format: cell-based, human; conditions: 5 µM
Protocol: For indirect immunofluorescence of mitochondria, 10^4 cells were plated on cover glass and incubated for 24 h with compounds. Cells were then fixed in 4% formaldehyde (in PBS pH 7.4) for 20 min at RT, permeabilized with PBS-Triton X-100 0.5% for 10 min at RT. Immunostaining was carried out overnight at 4 °C with a primary anti-citrate synthase antibody (dilution 1:400 in PBS-BSA 3%; SC390693; SantaCruz Biotechnologies, Heidelberg, Germany). […] Each image was recorded with the CLSM’s spectral mode selecting specific domains of the emission spectrum. The Alexafluor488 and FITC fluorophores were excited at 488 nm with an argon laser, and fluorescence emission was collected between 496 nm and 535 nm. The TRITC fluorophore was excited at 543 nm with a helium–neon laser, and fluorescence was collected between 560 and 620 nm. […]
The analyses of mitochondria and microtubule networks were performed using, respectively, the ‘Mitochondria analyzer’ plugin for Fiji v1.54f software and the method described in our earlier work. Briefly, a series of images were transferred to the software and corrected for background fluorescence intensity contribution. Next, the surface of 50 single cells was measured by considering the cell shape as the boundary of labelling of actin or α-tubulin cytoskeletons (respectively for measurement on mitochondria or microtubules). […]

[2] = system: U87 shCTRL cells; assay: 2D random cell motility assay, U87 shCTRL; format: cell-based, human; conditions: 1.4 µM of compound 2, 1.6 µM of compound 9
Protocol: Cell motility was recorded by time-lapse videomicroscopy, as previously described. Briefly, cells were trypsinized and then seeded on Fibronectin pre-coated 24-well plates at 10^4 cells per well and allowed to adhere at 37 °C for 2 h in a 5% CO2 incubator. The cells were briefly rinsed in imaging medium (EMEM containing 10% FBS) to remove unattached cells before imaging. For conditions using compounds, agents were added to cells 15 min before launching the recording of the time-lapse series. Next, the plates were placed on an inverted wide-field Nikon microscope equipped with a 10× air objective (NA = 0.3) at 37 °C in 5% CO2. For all conditions, 61 frames of four fields were acquired using a CCD camera (Coolsnap HQ camera, Photometrics, Tucson, AZ, USA) driven by NIS elements AR 2.30 software (Nikon, Heidelberg, Germany). Migration tracks (n = 60–80 cells) were used to calculate total migration distance, distance to origin, velocity, and directional persistence of cell migration. Velocity was calculated as the total migration distance divided by 600 (600 min is total time of experiment). The distance to origin was determined as the net translocation between the initial and the final position. Directional persistence was calculated as the ratio of the distance to origin to that of the total distance migration.

Structure (SMILES) | impact on the mitochondria networks [1] | decrease in distance to origin [2] [%] | decrease in velocity [2] [%]
Nc1nc2ccc3oc(-c4cccc(Oc5ccccc5)c4)cc(=O)c3c2s1 [Compound 2, 2-amino-7-(3-phenoxyphenyl)-9H-chromeno [6,5-d]thiazol-9-one] | none of the compounds had an impact | 25 | 15
Nc1nc2ccc3oc(C(=O)O)cc(=O)c3c2s1 [Compound 5] | none of the compounds had an impact | – | –
